Read-outs that look alike come from different tables or passages of the source.
Legend:
[1] = Compound 122 saliva concentrations in healthy human subjects after oral administration (HPLC-MS/MS); format: in vivo; conditions: for concentration at 2 h / concentration at 4 h / concentration at 8 h / concentration at 24 h / concentration at 0 h: human, saliva, po
Method: (§1) Stock solutions of Compound 122-HCl salt and internal standard 2-difluoromethoxy-5-trifluoromethoxy-benzyl)-(2-phenyl-piperidin-3-yl)-amine] HCl salt (hereinafter referred to as IS, for internal standard) were prepared at concentrations of 100 μg/ml in 1:1 Methanol/Water and stored at −20° C. […] Serial dilutions of the stock solutions were prepared in 1:1 Methanol/Water as needed. Standard curve samples were freshly prepared using serial dilutions of stock so that equivalent additions produced 0.1, 0.2, 0.5, 2, 10, and 50 ng/ml solutions in Control Human Saliva (CHS). Quality control samples were prepared from a different stock solution similarly at 0.15, 5, and 40 ng/ml in CHS.
Aliquots (50 μl) of Human saliva, 200 μl of 0.1% Ammonium Hydroxide and 50 μl of 2.0 ng/ml IS were added, in sequence, to one well of a 96 well block. The plate was centrifuged briefly to consolidate the above contents and placed onto a TomTec Quadra 96. An automatic program was used that performs the following steps: conditions a Waters brand 10 mg Oasis HLB plate with 100 μl Methanol and then 200 μl 50/50 Methanol/Water (containing 2% v/v Ammonium Hydroxide), transfers the 300 μl of sample to the plate, washes the plate with 400 μl of 50/50 Methanol/Water (containing 2% v/v Ammonium Hydroxide) and then elutes the drug and IS into a clean 96 deep well block with 200 μl of 70/30 Methanol/Water (containing 2% v/v Acetic Acid). The eluent was isolated, evaporated to dryness under a stream of Nitrogen, and reconstituted in 100 μl 60/40 Methanol/10 mM Ammonium Acetate (both containing 0.05% Formic Acid) and vortexed for approximately 30 seconds. The plate was then centrifuged for ˜1 minute at about 3000 RPM. Injection volumes introduced into HPLC system were typically […].
The mobile phase was a binary mixture (60/40) of Methanol and 10 mM Ammonium Acetate (both containing 0.05% Formic Acid). The analytical column was a Phenomenex LUNA Phenyl Hexyl, 5μ, 2.00×50 mm LC/MS column preceded by a 2.0 micron stainless steel precolumn filter. A Hewlett Packard 1100 series quaternary pump was used and a mobile phase flow rate of 0.30 ml/min was maintained. A CTC Analytics (LEAP) HTS PAL autosampler injected the 10 μl sample aliquots onto the column at approximately 3 minute intervals.
The analysis was performed on a Perkin Elmer SCIEX API 3000 triple quadrupole mass spectrometer operated in the positive ion mode. The effluent from the HPLC column was directly introduced into the TurbolonSpray ion source, which was operated at 1500V with a temperature of 375° C. and 6 L/sec nitrogen gas. Nitrogen nebulizer gas was set to 10 and curtain gas was set to 9. Analyte and IS responses were measured using multiple reaction monitoring (MRM). Protonated molecular ions for drug (m/z 381.4), and I.S. (m/z 417.1) were dissociated by collision with nitrogen. Collision gas (CAD) was set to 5 and a collision energy of 32 eV was used. Product ions at m/z 160.0 were monitored for both drug and IS runs.
Subjects were divided into three groups of six individuals: CYP2D6 extensive metabolizers (including one “intermediate” metabolizer), CYP2D6 extensive metabolizers receiving concurrent paroxetine as an inhibitor of CYP2D6 (also including one intermediate metabolizer), and CYP2D6 poor metabolizers. […] Saliva samples were collected on the first day of each study leg.
Samples were subjected to a solid phase extraction procedure followed by chromatography and analysis on a Sciex API3000 tandem quadrupole mass spectrometer.
Mean values were calculated in those cases in which half or greater of the individual values were >LLOQ. A value of zero was used in those cases wherein concentrations were <LLOQ. […] Cav is defined by AUC (0-24 hr)/24.

[2] = Stability of Compound 122 stock solution; format: physicochemical; conditions: HCl salt, 100 μg/ml in 1:1 Methanol/Water, stored at −20° C.
Method: as §1

[3] = 10 mg, EM + paroxetine, Day 1, 10 mg q.d. oral, read-out: Mean saliva concentration, EM + paroxetine, Mean ± SD
[4] = 10 mg, EM + paroxetine, Day 6, 10 mg b.i.d. oral, read-out: Mean saliva concentration, EM + paroxetine, Mean ± SD
[5] = 10 mg, EM, Day 1, 10 mg q.d. oral, read-out: Mean saliva concentration, EM, Mean ± SD
[6] = 10 mg, EM, Day 6, 10 mg b.i.d. oral, read-out: Mean saliva concentration, EM, Mean ± SD
[7] = 10 mg, PM, Day 1, 10 mg q.d. oral, read-out: Mean saliva concentration, PM, Mean ± SD
[8] = 10 mg, PM, Day 6, 10 mg b.i.d. oral, read-out: Mean saliva concentration, PM, Mean ± SD
[9] = 30 mg, EM + paroxetine, Day 11, 30 mg q.d. oral, read-out: Mean saliva concentration, EM + paroxetine, Mean ± SD
[10] = 30 mg, EM + paroxetine, Day 16, 30 mg b.i.d. oral, read-out: Mean saliva concentration, EM + paroxetine, Mean ± SD
[11] = 30 mg, EM, Day 11, 30 mg q.d. oral, read-out: Mean saliva concentration, EM, Mean ± SD
[12] = 30 mg, EM, Day 16, 30 mg b.i.d. oral, read-out: Mean saliva concentration, EM, Mean ± SD
[13] = 30 mg, PM, Day 11, 30 mg q.d. oral, read-out: Mean saliva concentration, PM, Mean ± SD
[14] = 30 mg, PM, Day 16, 30 mg b.i.d. oral, read-out: Mean saliva concentration, PM, Mean ± SD
[15] = 100 mg, EM + paroxetine, Day 21, 100 mg q.d. oral, read-out: Mean saliva concentration, EM + paroxetine, Mean ± SD
[16] = 100 mg, EM, Day 21, 100 mg q.d. oral, read-out: Mean saliva concentration, EM, Mean ± SD
[17] = 100 mg, PM, Day 21, 100 mg q.d. oral, read-out: Mean saliva concentration, PM, Mean ± SD

Structure (SMILES): COc1ccc(OC(F)(F)F)cc1CNC1CCCNC1c1ccccc1 (centres unmarked) [Compound 122, (2-methoxy-5-trifluoromethoxy-benzyl)-(2-phenyl-piperidin-3-yl)-amine]
- mean salivary Cav ([1]; 30 mg b.i.d., Cav = AUC (0-24 hr)/24): 4.04 ng/mL
- serum Cav corresponding to salivary Cav ([1]; 30 mg b.i.d., salivary Cav divided by fu): 58 ng/mL
- concentration at 2 h [1, 3]: 0.5 ± 0.462 ng/mL
- concentration at 4 h [1, 3]: 0.632 ± 0.773 ng/mL
- concentration at 8 h [1, 3]: 0.533 ± 0.722 ng/mL
- concentration at 24 h [1, 3]: 0.192 ± 0.332 ng/mL
- concentration at 0 h [1, 4]: 3.21 ± 5.09 ng/mL
- concentration at 2 h [1, 4]: 1.92 ± 1.83 ng/mL
- concentration at 4 h [1, 4]: 2.97 ± 2.16 ng/mL
- concentration at 8 h [1, 4]: 5.68 ± 9.27 ng/mL
- concentration at 24 h [1, 4]: 2.16 ± 1.27 ng/mL
- concentration at 2 h [1, 5]: 0.545 ± 0.518 ng/mL
- concentration at 4 h [1, 5]: 0.524 ± 0.293 ng/mL
- concentration at 8 h [1, 5]: 0.313 ± 0.164 ng/mL
- concentration at 0 h [1, 6]: 0.27 ± 0.454 ng/mL
- concentration at 2 h [1, 6]: 0.541 ± 0.465 ng/mL
- concentration at 4 h [1, 6]: 0.987 ± 0.915 ng/mL
- concentration at 8 h [1, 6]: 0.805 ± 1.18 ng/mL
- concentration at 24 h [1, 6]: 0.418 ± 0.426 ng/mL
- concentration at 2 h [1, 7]: 0.517 ± 0.261 ng/mL
- concentration at 4 h [1, 7]: 2.23 ± 1.06 ng/mL
- concentration at 8 h [1, 7]: 2.31 ± 1.32 ng/mL
- concentration at 24 h [1, 7]: 1.05 ± 0.558 ng/mL
- concentration at 0 h [1, 8]: 2.93 ± 2.45 ng/mL
- concentration at 2 h [1, 8]: 2.85 ± 2.18 ng/mL
- concentration at 4 h [1, 8]: 4.69 ± 3.28 ng/mL
- concentration at 8 h [1, 8]: 3.23 ± 2.8 ng/mL
- concentration at 24 h [1, 8]: 5.51 ± 4.39 ng/mL
- concentration at 0 h [1, 9]: 3.86 ± 1.57 ng/mL
- concentration at 2 h [1, 9]: 5.98 ± 2.9 ng/mL
- concentration at 4 h [1, 9]: 9.51 ± 3.07 ng/mL
- concentration at 8 h [1, 9]: 6.3 ± 1.69 ng/mL
- concentration at 24 h [1, 9]: 5.59 ± 2.28 ng/mL
- concentration at 0 h [1, 10]: 6.16 ± 4.58 ng/mL
- concentration at 2 h [1, 10]: 9.11 ± 5.4 ng/mL
- concentration at 4 h [1, 10]: 10 ± 6 ng/mL
- concentration at 8 h [1, 10]: 9.69 ± 4.74 ng/mL
- concentration at 24 h [1, 10]: 9.67 ± 5.91 ng/mL
- concentration at 0 h [1, 11]: 1.16 ± 1.81 ng/mL
- concentration at 2 h [1, 11]: 3.07 ± 2.77 ng/mL
- concentration at 4 h [1, 11]: 4.03 ± 4.1 ng/mL
- concentration at 8 h [1, 11]: 3.18 ± 2.99 ng/mL
- concentration at 24 h [1, 11]: 1.92 ± 3.13 ng/mL
- concentration at 0 h [1, 12]: 2.44 ± 4.17 ng/mL
- concentration at 2 h [1, 12]: 2.91 ± 2.49 ng/mL
- concentration at 4 h [1, 12]: 4.57 ± 3.03 ng/mL
- concentration at 8 h [1, 12]: 3.44 ± 3.67 ng/mL
- concentration at 24 h [1, 12]: 5.08 ± 7.08 ng/mL
- concentration at 0 h [1, 13]: 8.31 ± 6.8 ng/mL
- concentration at 2 h [1, 13]: 6.96 ± 3.73 ng/mL
- concentration at 4 h [1, 13]: 11.1 ± 8.5 ng/mL
- concentration at 8 h [1, 13]: 14 ± 9.7 ng/mL
- concentration at 24 h [1, 13]: 11.8 ± 9.3 ng/mL
- concentration at 0 h [1, 14]: 15 ± 10.9 ng/mL
- concentration at 2 h [1, 14]: 11.4 ± 6.5 ng/mL
- concentration at 4 h [1, 14]: 12.9 ± 7.5 ng/mL
- concentration at 8 h [1, 14]: 13.3 ± 9.9 ng/mL
- concentration at 24 h [1, 14]: 21.5 ± 18.4 ng/mL
- concentration at 24 h ([1]; 100 mg q.d., EM + paroxetine, Day 21, 100 mg q.d. oral, read-out: Mean saliva concentration, EM + paroxetine, Mean ± SD): 15.7 ± 8.8 ng/mL
- concentration at 24 h ([1]; 100 mg q.d., EM, Day 21, 100 mg q.d. oral, read-out: Mean saliva concentration, EM, Mean ± SD): 12.5 ± 15.4 ng/mL
- concentration at 24 h ([1]; 100 mg q.d., PM, Day 21, 100 mg q.d. oral, read-out: Mean saliva concentration, PM, Mean ± SD): 46.4 ± 27.1 ng/mL
- concentration at 0 h [1, 15]: 12.2 ± 2.7 ng/mL
- concentration at 2 h [1, 15]: 35.5 ± 24.7 ng/mL
- concentration at 4 h [1, 15]: 44.1 ± 32.3 ng/mL
- concentration at 8 h [1, 15]: 27.2 ± 10 ng/mL
- concentration at 0 h [1, 16]: 6.94 ± 6.81 ng/mL
- concentration at 2 h [1, 16]: 19.1 ± 16.6 ng/mL
- concentration at 4 h [1, 16]: 21.2 ± 13.6 ng/mL
- concentration at 8 h [1, 16]: 14.6 ± 8.6 ng/mL
- concentration at 0 h [1, 17]: 32.9 ± 17.1 ng/mL
- concentration at 2 h [1, 17]: 23.1 ± 12.1 ng/mL
- concentration at 4 h [1, 17]: 46.2 ± 29.1 ng/mL
- concentration at 8 h [1, 17]: 41.3 ± 26.2 ng/mL
- stock solution stable over period [2]: ≥ 93 days

Source: patent US20030211636A1, “Point of care test for measurement of therapeutic drug levels” (Pfizer Inc., priority 2002, published 2003)
